What was measured:
Assay in all cases: Bliss excess, mean over the matrix (fraction); higher = more synergy
GAMG (Glioblastoma) = system: GAMG (Glioblastoma)
How it was run: (§1)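 Bliss excess equals the observed combination effect minus the expected value EA + EB − EA·EB, where EA and EB are the effects of each agent alone. Combination Emax is the second-highest inhibition within the matrix. Inhibition was scaled from CellTiter-Glo 2.0 luminescence, with 0 set by vehicle wells and 1 by blank wells, after 72 hours of two-drug dosing of cells plated in 1536-well plates.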

[1] = system: SNU-16 (Gastric Carcinoma)
How it was run: as §1

[2] = system: SNU-449 (Hepatocellular Carcinoma)
How it was run: as §1

[3] = system: WSU-NHL (B-Cell Non-Hodgkin's Lymphoma)
How it was run: as §1

[4] = system: HH (T-Cell Non-Hodgkin's Lymphoma)
How it was run: as §1

A673 (Ewing's Sarcoma) = system: A673 (Ewing's Sarcoma)
How it was run: as §1

[5] = system: TGBC1TKB (Biliary Tract Carcinoma)
How it was run: as §1

MPP-89 (Mesothelioma) = system: MPP-89 (Mesothelioma)
How it was run: as §1

[6] = system: YAPC (Pancreatic Carcinoma)
How it was run: as §1

EW-11 (Ewing's Sarcoma) = system: EW-11 (Ewing's Sarcoma)
How it was run: as §1

[7] = system: SW1710 (Bladder Carcinoma)
How it was run: as §1

[8] = system: Detroit562 (Head and Neck Carcinoma)
How it was run: as §1

BPH-1 (Non-Cancerous) = system: BPH-1 (Non-Cancerous)
How it was run: as §1

[9] = system: SW1573 (Lung Adenocarcinoma)
How it was run: as §1

[10] = system: NUGC-4 (Gastric Carcinoma)
How it was run: as §1

NCI-H2052 (Mesothelioma) = system: NCI-H2052 (Mesothelioma)
How it was run: as §1

[11] = system: ALL-PO (B-Lymphoblastic Leukemia)
How it was run: as §1

NCI-H2722 (Mesothelioma) = system: NCI-H2722 (Mesothelioma)
How it was run: as §1

[12] = system: Hs-746T (Gastric Carcinoma)
How it was run: as §1

SMILES	Bliss excess (GAMG (Glioblastoma))	Bliss excess [1]	Bliss excess [2]	Bliss excess [3]	Bliss excess [4]	Bliss excess (A673 (Ewing's Sarcoma))	Bliss excess [5]	Bliss excess (MPP-89 (Mesothelioma))	Bliss excess [6]	Bliss excess (EW-11 (Ewing's Sarcoma))	Bliss excess [7]	Bliss excess [8]	Bliss excess (BPH-1 (Non-Cancerous))	Bliss excess [9]	Bliss excess [10]	Bliss excess (NCI-H2052 (Mesothelioma))	Bliss excess [11]	Bliss excess (NCI-H2722 (Mesothelioma))	Bliss excess [12]
C[C@@H](Nc1cc(F)cc(F)c1)c1cc(C(=O)N(C)C)cc2c(=O)cc(N3CCOCC3)oc12 [AZD8186] + C1CN(CCC1(C(=O)N[C@@H](CCO)C2=CC=C(C=C2)Cl)N)C3=NC=NC4=C3C=CN4 [AZD5363] (first compound max 10 µM, 7x7, partner max 10 µM)	-0.0849	-0.0549	-0.0206	-0.0018	-0.125	0.0084	0.0539	-0.0635	-0.0214	-0.0265	-0.0408								
Cc1c2c(nn1C)CSCc1cc(n(C)n1)CSc1cc(c3ccccc3c1)OCCCc1c(C(=O)O)n(C)c3c-2c(Cl)ccc13 [AZD5991] + CC(=O)O[C@H]1C(=O)[C@@]2(C)[C@H]([C@H](OC(=O)c3ccccc3)[C@]3(O)C[C@H](OC(=O)[C@H](O)[C@@H](NC(=O)c4ccccc4)c4ccccc4)C(C)=C1C3(C)C)[C@]1(OC(C)=O)CO[C@@H]1C[C@@H]2O [Paclitaxel] (first compound max 1 µM, 7x7, partner max 3 µM)	0.039	0.0119	-0.0404	-0.0565	0.0737	0.0296	-0.0892	-0.0347	0.0224	0.0039	-0.0241								
C[C@@H]1COCCN1c1cc(C2([S@](C)(=N)=O)CC2)nc(-c2ccnc3[nH]ccc23)n1 [AZD6738] + C1CC(C1)(C(=O)[O-])C(=O)[O-].N.N.[Pt+2] [Carboplatin] (first compound max 10 µM, 7x7, partner max 10 µM)	-0.0162	0.0045	-0.0341	-0.054	-0.0016	0.0216	-0.0375	-0.035	-0.0227	-0.041	-0.0642								
C=CCn1c(=O)c2cnc(Nc3ccc(N4CCN(C)CC4)cc3)nc2n1-c1cccc(C(C)(C)O)n1 [AZD1775] + C1CN(CCC1(C(=O)N[C@@H](CCO)C2=CC=C(C=C2)Cl)N)C3=NC=NC4=C3C=CN4 [Capivasertib] (first compound max 3 µM, partner max 3 µM)	0.0181		0.0122	-0.0271	-0.144	0.018	-0.0061	-0.0704	-0.0097	0.0203	0.0334	0.0209	-0.0371	-0.0229	-0.14	-0.0369	-0.0134	-0.0603	0.031
CS(=O)(=O)CCNCc1ccc(-c2ccc3ncnc(Nc4ccc(OCc5cccc(F)c5)c(Cl)c4)c3c2)o1 [Lapatinib] + Cn1cnc2c(F)c(Nc3ccc(Br)cc3Cl)c(C(=O)NOCCO)cc21 [Selumetinib] (first compound max 10 µM, 7x7, partner max 10 µM)	-0.06	-0.0169	-0.0601	-0.0093	-0.0496	-0.039	0.034	-0.0065	0.0037	-0.0259	-0.0077								
O=C(c1cc(Cc2n[nH]c(=O)c3ccccc23)ccc1F)N1CCN(C(=O)C2CC2)CC1 [Olaparib] + COc1nnc2ccc(N3CCC(c4ccc(OCCN5CCN(C)C(=O)[C@H]5C)cc4)CC3)nn12 [AZD5153] (first compound max 10 µM, 7x7, partner max 1 µM)	-0.002	-0.0066	-0.0587	-0.06	-0.0066	-0.077	-0.0322	-0.0489	-0.0239	-0.0063	0.0021								
C=CCn1c(=O)c2cnc(Nc3ccc(N4CCN(C)CC4)cc3)nc2n1-c1cccc(C(C)(C)O)n1 [AZD1775] + Nc1ccn([C@@H]2O[C@H](CO)[C@@H](O)C2(F)F)c(=O)n1 [Gemcitabine] (first compound max 1 µM, partner max 0.3 µM)	0.0684	-0.013	-0.0186	-0.0035	-0.0316	0.039	-0.02	0.0505	0.109	-0.0613	0.0838								
CCc1c2c(nc3ccc(O)cc13)-c1cc3c(c(=O)n1C2)COC(=O)[C@]3(O)CC [SN-38] + O=C(c1cc(Cc2n[nH]c(=O)c3ccccc23)ccc1F)N1CCN(C(=O)C2CC2)CC1 [Olaparib] (first compound max 0.3 µM, 7x7, partner max 10 µM)	0.109	0.0005	-0.0319	0.044	-0.0275	0.0875	0.0009	0.0504	0.0336	-0.0291	0.037		0.0501				0.0576	0.0188	
O=C(c1cc(Cc2n[nH]c(=O)c3ccccc23)ccc1F)N1CCN(C(=O)C2CC2)CC1 [Olaparib] + CN(CC[C@H](CSC1=CC=CC=C1)NC2=C(C=C(C=C2)S(=O)(=O)NC(=O)C3=CC=C(C=C3)N4CCC(CC4)[C@H](C5=CC=CC=C5C6=CC=C(C=C6)Cl)O)S(=O)(=O)C(F)(F)F)CCO [AZD4320] (first compound max 10 µM, 7x7, partner max 1 µM)	-0.034	0.0432	-0.0422	0.0345	-0.0133	0.0265	-0.049	-0.0662	-0.0169	0.0141	-0.0397								

— the supplement of paper PMC11061612
